The results in this text go back to patent US10941157B2, “Pesticidal compositions and uses thereof” (Gilead Apollo, LLC, priority 2015, dated 2021).

Values after ≈ are worked out from the molar mass of the structure shown. Where two headings read alike, the source gives them in different places.

Holding throughout (format): cell-based
The test system of experiment [1] is Diplodia maydis (Dm). Kind of experiment: In vitro pathogen growth inhibition assay, Dm. The settings on record: Stenocarpella maydis, 48 h. The gist of the method: (§1)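 Value reported is the compound concentration reaching ≥90% growth inhibition, from OD readings at 24 and 48 h after blank subtraction, confirmed visually. Inoculum was spores diluted in 17% V8 medium, except Rs, using 1.5 mm mycelial plugs in ¼ PDB; actual compound concentration corrected via OD600.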

For experiment [2], the system named is Fusarium virguliforme (Fv). Kind of experiment: In vitro pathogen growth inhibition assay, Fv. The gist of the method: as §1
Experiment [3] concerns Botrtyis cinerea (Bc). As to the kind of experiment: In vitro pathogen growth inhibition assay, Bc. The settings on record: 48 h. The gist of the method:
as §1

The subject of experiment [4] is Septoria tritici (St). Kind of experiment: In vitro pathogen growth inhibition assay, St. As to conditions: Zymoseptoria tritici, 48 h. The gist of the method:
as §1

Experiment [5] relates to Phytophthora capsici (Pc). Kind of experiment: In vitro pathogen growth inhibition assay, Pc. As to conditions: 48 h. An outline of the steps:
as §1

Experiment [6] deals with Rhizoctonia solani (Rs). As to the kind of experiment: In vitro pathogen growth inhibition assay, Rs (mycelial plugs). As to conditions: Rhizoctonia solani, 48 h. The gist of the method:
as §1

In experiment [7] the test system is Fusarium moniliforme (Fm). As to the kind of experiment: In vitro pathogen growth inhibition assay, Fm. As to conditions: Fusarium verticillioides. The gist of the method: as §1
Experiment [8] has as its system Collectotrichum graminicola (Cg). Kind of experiment: In vitro pathogen growth inhibition assay, Cg. As to conditions: 48 h. The gist of the method:
as §1

Setting [9] is: ≥90% growth inhibition, 48 hours, vs 2% DMSO control, read-out: Compound Concentration (ppm) sufficient for ≥90% inhibition of Dm.
Where [10] appears, read: ≥90% growth inhibition, 48 hours, vs 2% DMSO control, read-out: Compound Concentration (ppm) sufficient for ≥90% inhibition of Fv.
The mark [11] stands for this setting: ≥90% growth inhibition, 48 hours, vs 2% DMSO control, read-out: Compound Concentration (ppm) sufficient for ≥90% inhibition of Bc.
The mark [12] stands for this setting: ≥90% growth inhibition, 48 hours, vs 2% DMSO control, read-out: Compound Concentration (ppm) sufficient for ≥90% inhibition of St.
Where [13] appears, read: ≥90% growth inhibition, 48 hours, vs 2% DMSO control, read-out: Compound Concentration (ppm) sufficient for ≥90% inhibition of Pc.
[14] abbreviates: ≥90% growth inhibition, mycelial plugs, 48 hours, vs 2% DMSO control, read-out: Compound Concentration (ppm) sufficient for ≥90% inhibition of Rs.
The mark [15] stands for this setting: ≥90% growth inhibition, 48 hours, vs 2% DMSO control, read-out: Compound Concentration (ppm) sufficient for ≥90% inhibition of Fm.
[16] abbreviates: ≥90% growth inhibition, 48 hours, vs 2% DMSO control, read-out: Compound Concentration (ppm) sufficient for ≥90% inhibition of Cg.

Turning to `COc1ccc(F)cc1[C@H](Cn1c(=O)n([C@H](C)C(N)=O)c(=O)c2c(C)c(-n3nccn3)sc21)OCC(C)(C)C#N` [Compound I-255], the IC90 is at least 10 µg/mL in experiment [1] (setting [9]); at least 10 µg/mL in experiment [2] (setting [10]); 2 µg/mL (≈ 3.51 µM) in experiment [3] (setting [11]); over 50 µg/mL in experiment [4] (setting [12]); over 50 µg/mL in experiment [5] (setting [13]); 2 µg/mL (≈ 3.51 µM) in experiment [6] (setting [14]). Also, the IC90 was 2 µg/mL (≈ 3.51 µM) in experiment [7] (setting [15]) and at least 10 µg/mL in experiment [8] (setting [16]).
For the compound `COc1ccc(F)cc1[C@H](Cn1c(=O)n([C@@H](C)C(N)=O)c(=O)c2c(C)c(-n3nccn3)sc21)OCC(C)(C)C#N` [Compound I-256], the IC90 in experiment [1] (concentration sufficient to ≥90% inhibition of growth, 48 hours vs 2% DMSO control, read-out: Compound Concentration (ppm) for ≥90% inhibition, Dm) was 50 µg/mL (≈ 87.8 µM); in experiment [2] (concentration sufficient to ≥90% inhibition of growth, 48 hours vs 2% DMSO control, read-out: Compound Concentration (ppm) for ≥90% inhibition, Fv) it was 50 µg/mL (≈ 87.8 µM); in experiment [3] (concentration sufficient to ≥90% inhibition of growth, 48 hours vs 2% DMSO control, read-out: Compound Concentration (ppm) for ≥90% inhibition, Bc), 50 µg/mL (≈ 87.8 µM); in experiment [4] (concentration sufficient to ≥90% inhibition of growth, 48 hours vs 2% DMSO control, read-out: Compound Concentration (ppm) for ≥90% inhibition, St) it was over 50 µg/mL; in experiment [5] (concentration sufficient to ≥90% inhibition of growth, 48 hours vs 2% DMSO control, read-out: Compound Concentration (ppm) for ≥90% inhibition, Pc), over 50 µg/mL; in experiment [6] (concentration sufficient to ≥90% inhibition of growth, 48 hours vs 2% DMSO control, read-out: Compound Concentration (ppm) for ≥90% inhibition, Rs) it was 50 µg/mL (≈ 87.8 µM). The IC90 in experiment [7] (concentration sufficient to ≥90% inhibition of growth, 48 hours vs 2% DMSO control, read-out: Compound Concentration (ppm) for ≥90% inhibition, Fm) worked out at 10 µg/mL (≈ 17.6 µM); in experiment [8] (concentration sufficient to ≥90% inhibition of growth, 48 hours vs 2% DMSO control, read-out: Compound Concentration (ppm) for ≥90% inhibition, Cg), 50 µg/mL (≈ 87.8 µM).
Regarding `COc1ccc(F)cc1[C@H](Cn1c(=O)n(C(C)(C)C(=O)NC(C)C)c(=O)c2c(C)c(-n3cccn3)sc21)OCC#N` [Compound I-257], the IC90 in experiment [1] (setting [9]) was 50 µg/mL (≈ 85.8 µM); in experiment [2] (setting [10]), 0.4 µg/mL (≈ 0.687 µM); in experiment [3] (setting [11]), 2 µg/mL (≈ 3.43 µM); in experiment [4] (setting [12]), over 50 µg/mL; in experiment [5] (setting [13]), over 50 µg/mL; in experiment [6] (setting [14]) it was 2 µg/mL (≈ 3.43 µM). The IC90 amounted to 0.4 µg/mL (≈ 0.687 µM) in experiment [7] (setting [15]) and 2 µg/mL (≈ 3.43 µM) in experiment [8] (setting [16]).
In the case of `COc1ccc(F)cc1[C@H](Cn1c(=O)n(C(C)(C)C(=O)NC(C)C)c(=O)c2c(C)c(-n3nccn3)sc21)O[C@H]1CC[C@@H](O)CC1` [Compound I-264], the IC90 in experiment [1] (setting [9]) is 2 µg/mL (≈ 3.11 µM); in experiment [2] (setting [10]) it was 0.4 µg/mL (≈ 0.622 µM); in experiment [3] (setting [11]), 0.4 µg/mL (≈ 0.622 µM); in experiment [4] (setting [12]), over 50 µg/mL; in experiment [5] (setting [13]), 50 µg/mL (≈ 77.8 µM); in experiment [6] (setting [14]), 0.08 µg/mL (≈ 0.124 µM). In addition, the IC90 in experiment [7] (setting [15]) is 0.08 µg/mL (≈ 0.124 µM); in experiment [8] (setting [16]), 2 µg/mL (≈ 3.11 µM).
With `COc1ccccc1[C@H](Cn1c(=O)n(C(C)(C)C(=O)NC(C)C)c(=O)c2c(C)c(-n3nccn3)sc21)O[C@H]1CC[C@@H](O)CC1` [Compound I-265], the IC90 is 2 µg/mL (≈ 3.2 µM) in experiment [1] (setting [9]); 0.4 µg/mL (≈ 0.64 µM) in experiment [2] (setting [10]); 0.4 µg/mL (≈ 0.64 µM) in experiment [3] (setting [11]); at least 50 µg/mL in experiment [4] (setting [12]); at least 50 µg/mL in experiment [5] (setting [13]); 0.08 µg/mL (≈ 0.128 µM) in experiment [6] (setting [14]). In addition, the IC90 in experiment [7] (setting [15]) is 0.08 µg/mL (≈ 0.128 µM); in experiment [8] (setting [16]), 2 µg/mL (≈ 3.2 µM).
With `COc1ccccc1[C@H](Cn1c(=O)n(C(C)(C)C(=O)NC(C)C)c(=O)c2c(C)c(-n3nccn3)sc21)OCCC(=O)NO` [Compound I-266], the IC90 in experiment [1] (setting [9]) is 10 µg/mL (≈ 16.3 µM); in experiment [2] (setting [10]), 2 µg/mL (≈ 3.26 µM); in experiment [3] (setting [11]), 2 µg/mL (≈ 3.26 µM); in experiment [4] (setting [12]), over 50 µg/mL; in experiment [5] (setting [13]), at least 50 µg/mL; in experiment [6] (setting [14]) it was 2 µg/mL (≈ 3.26 µM). In addition, the IC90 was 2 µg/mL (≈ 3.26 µM) in experiment [7] (setting [15]) and 10 µg/mL (≈ 16.3 µM) in experiment [8] (setting [16]).
With `Cc1c(-n2nccn2)sc2c1c(=O)n(C(C)(C)C(=O)NC1CCC1)c(=O)n2C[C@H](OC(C)C)c1cc(F)ccc1OCC#N` [Compound I-267], the IC90 in experiment [1] (setting [9]) was 2 µg/mL (≈ 3.21 µM); in experiment [2] (setting [10]) it was 0.4 µg/mL (≈ 0.641 µM); in experiment [3] (setting [11]), 0.4 µg/mL (≈ 0.641 µM); in experiment [4] (setting [12]), over 50 µg/mL; in experiment [5] (setting [13]), over 50 µg/mL; in experiment [6] (setting [14]), 0.4 µg/mL (≈ 0.641 µM). Further, the IC90 worked out at 0.08 µg/mL (≈ 0.128 µM) in experiment [7] (setting [15]) and 2 µg/mL (≈ 3.21 µM) in experiment [8] (setting [16]).
As for `Cc1c(-n2nccn2)sc2c1c(=O)n(C(C)(C)C(=O)NC(C)C)c(=O)n2C[C@H](O[C@H]1CC[C@@H](O)CC1)c1cc(F)ccc1OCC#N` [Compound I-268], the IC90 is at least 2 µg/mL in experiment [1] (setting [9]); 2 µg/mL (≈ 3 µM) in experiment [2] (setting [10]); 2 µg/mL (≈ 3 µM) in experiment [3] (setting [11]); over 50 µg/mL in experiment [4] (setting [12]); over 50 µg/mL in experiment [5] (setting [13]); 0.4 µg/mL (≈ 0.599 µM) in experiment [6] (setting [14]). In addition, the values for the IC90 in experiment [7] (setting [15]) and in experiment [8] (setting [16]) were 0.08 µg/mL (≈ 0.12 µM) and 2 µg/mL (≈ 3 µM), respectively.
